In paper PMC11881662 (Journal of Enzyme Inhibition and Medicinal Chemistry, 2025):
In brackets after ≈: the same amount, converted by molar mass. Several values for one entry are separate records, joined by “and”; a condition that tells them apart may be missing. Equal values may be shown once.

Columns and labels:
plasmid pBR322 [1] = assay: Ethidium bromide assay, DNA-binding effects on plasmid pBR322; conditions: EtBr-DNA complex, compound 10 μM, 25 °C 30 min; no drug = 100% fluorescence
calf thymus DNA = assay: Ethidium bromide assay, DNA-binding effects on calf thymus DNA; conditions: EtBr-DNA complex, compound 10 μM, 25 °C 30 min
T4 coliphage DNA = assay: Ethidium bromide assay, DNA-binding effects on T4 coliphage DNA; conditions: EtBr-DNA complex, compound 10 μM, 25 °C 30 min
recombinant human DHFR = molecular target: T1, recombinant human DHFR (Homo sapiens, UniProt P00374); assay: Dihydrofolate reductase; format: biochemical
T1 sequence (P00374 1-187): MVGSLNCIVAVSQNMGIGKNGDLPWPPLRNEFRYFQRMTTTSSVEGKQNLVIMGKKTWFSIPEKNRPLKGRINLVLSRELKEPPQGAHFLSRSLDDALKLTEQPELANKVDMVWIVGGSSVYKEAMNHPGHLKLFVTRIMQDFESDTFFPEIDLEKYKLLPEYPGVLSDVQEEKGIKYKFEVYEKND

[2] = test system: MCF-7 breast cancer cell line; assay: In vitro anti-proliferative MTT assay; format: cell-based, human; conditions: for IC50: Homo sapiens, MCF7, 24 h, read-out: MCF-7 IC50; for Selectivity index (SI): IC50 against normal cells (HSF) divided by IC50 against cancer cells (MCF-7)
[3] = test system: normal human skin fibroblasts (HSF); assay: Normal cytotoxicity evaluation, MTT; format: cell-based; conditions: Skin fibroblast, 24 h, read-out: Normal HSF IC50
MCF-7 cells [4] = assay: Apoptosis induction, Annexin V-FITC/PI flow cytometry; format: cell-based, human; conditions: MCF-7, at IC50, 24 h
MCF-7 cells [5] = assay: Wound healing assay; format: cell-based, human; conditions: MCF-7, at IC50 concentrations
poly(dA-dT)2 = assay: Ethidium bromide assay, DNA-binding effects on poly; conditions: EtBr-DNA complex, compound 10 μM, 25 °C 30 min
poly(dG-dC)2 = assay: as above; conditions: EtBr-DNA complex, compound 10 μM, 25 °C 30 min
plasmid pBR322 [6] = conditions: NT under the same conditions; cited from earlier work

Row | SMILES | Decrease in fluorescence (%) pBr322 (plasmid pBR322 [1]) | IC50 (recombinant human DHFR) | IC50 [2] | Decrease in fluorescence (%) Poly (dA-dT)2 (poly(dA-dT)2) | Decrease in fluorescence (%) Poly (dG-dC)2 (poly(dG-dC)2) | Decrease in fluorescence (%) Calf Thymus DNA (calf thymus DNA) | Decrease in fluorescence (%) T4 DNA (T4 coliphage DNA) | Selectivity index (SI) [2] | IC50 [3] | Percentage of necrosis (MCF-7 cells [4]) | Percentage of total apoptosis (MCF-7 cells [4]) | % Wound closure after 24 h treatment (MCF-7 cells [5]) | Decrease in fluorescence (%) pBr322 (degree of EtBr displacement) (plasmid pBR322 [6])
1 | O=C(O)C(/C=C/c1ccc(Cl)cc1)=N\Nc1nc(-c2ccccc2)cs1 [Compound 5, (2Z,3E)-4-(4-Chlorophenyl)-2-(2–(4-phenylthiazol-2-yl)hydrazinylidene)but-3-enoic acid] | 63.44% | 0.08 ± 0.001 µM | 2.72 µg/mL (≈ 7.09 µM) | 56.91% | 67.28% | 63.15% | 28.05% | 11.97 | 32.6 µg/mL (≈ 84.8 µM) | 3.09% | 29.63% | 45.19% | –
2 | COc1ccc(-c2csc(N/N=C(/C=C/c3ccc(Cl)cc3)C(=O)O)n2)cc1 [Compound 7, (2Z,3E)-4-(4-Chlorophenyl)-2-(2-(4-(4-methoxyphenyl)thiazol-2-yl)hydrazinylidene)but-3-enoic acid] | 62.36% | 39.41 ± 0.03 µM | – | – | 62.38% | 44.21% | 36.58% | – | – | – | – | – | –
3 | O=C(O)C(/C=C/c1ccc(Cl)cc1)=N\Nc1nc(-c2ccc([N+](=O)[O-])cc2)cs1 [Compound 11, (2Z,3E)-4-(4-Chlorophenyl)-2-(2-(4-(4-nitrophenyl)thiazol-2-yl)hydrazinylidene)but-3-enoic acid] | 56.21% | 0.06 ± 0.03 µM | 12.5 µg/mL (≈ 29.2 µM) | 53.39% | 56.57% | 46.31% | 28.89% | 6.74 | 84.4 µg/mL (≈ 197 µM) | 4.81% | 23.99% | 52.72% | –
4 | COc1cccc2c1C(=O)c1c(O)c3c(c(O)c1C2=O)C[C@@](O)(C(=O)CO)C[C@@H]3O[C@H]1C[C@H](N)[C@H](O)[C@H](C)O1 [DOX, doxorubicin, reference compound] | 100% | 8.31 ± 0.06 µM | – | – | – | – | – | – | – | – | – | – | –
5 | CN(Cc1cnc2nc(N)nc(N)c2n1)c1ccc(C(=O)N[C@@H](CCC(=O)O)C(=O)O)cc1 [MTX, Methotrexate, reference compound] | 100% | – | 56.9 µg/mL (≈ 125 µM) | – | – | – | – | – | 126 µg/mL (≈ 276 µM) | 6.50% | – | 45.46% | –
6 | Cn1cc(NC(=O)c2cc(NC(=O)CN=C(N)N)cn2C)cc1C(=O)NCCC(=N)N [NT, netropsin, reference compound] | – | – | – | 62.02% | 85% and 85.13% | 90.24% | 70.06% | – | – | – | – | – | 74%
7 | COc1cc(Cc2cnc(N)nc2N)cc(OC)c1OC [TMP, trimethoprim, reference compound] | 100% | – | – | – | – | – | – | – | – | – | – | – | –

Second part, led by results:

Row | Decrease in fluorescence (%) pBr322 (plasmid pBR322 [1]) | IC50 (recombinant human DHFR) | IC50 [2] | Decrease in fluorescence (%) Poly (dA-dT)2 (poly(dA-dT)2) | Decrease in fluorescence (%) Poly (dG-dC)2 (poly(dG-dC)2) | SMILES | Decrease in fluorescence (%) Calf Thymus DNA (calf thymus DNA) | Decrease in fluorescence (%) T4 DNA (T4 coliphage DNA) | Selectivity index (SI) [2] | IC50 [3] | Percentage of necrosis (MCF-7 cells [4]) | Percentage of total apoptosis (MCF-7 cells [4]) | % Wound closure after 24 h treatment (MCF-7 cells [5]) | Decrease in fluorescence (%) pBr322 (degree of EtBr displacement) (plasmid pBR322 [6])
8 | 60.93% | 10.51 ± 0.05 µM | – | 52.83% | 62.99% | O=C(O)C(/C=C/c1ccc(Cl)cc1)=N\Nc1nc(-c2ccc(F)cc2)cs1 [Compound 8, (2Z,3E)-4-(4-Chlorophenyl)-2-(2-(4-(4-fluorophenyl)thiazol-2-yl)hydrazinylidene)but-3-enoic acid] | 40.00% | 37.19% | – | – | – | – | – | –
9 | 53.40% | 36.18 ± 0.01 µM | – | 71.19% | 49.23% | O=C(O)C(/C=C/c1ccc(Cl)cc1)=N\Nc1nc(-c2ccc(Cl)cc2)cs1 [Compound 9, (2Z,3E)-4-(4-Chlorophenyl)-2-(2-(4-(4-chlorophenyl)thiazol-2-yl)hydrazinylidene)but-3-enoic acid] | 53.68% | 50.00% | – | – | – | – | – | –
10 | 53.76% | 58.29 ± 0.02 µM | – | 39.34% | 50.15% | O=C(O)C(/C=C/c1ccc(Cl)cc1)=N\Nc1nc(-c2ccc(Br)cc2)cs1 [Compound 10, (2Z,3E)-4-(4-Chlorophenyl)-2-(2-(4-(4-bromophenyl)thiazol-2-yl)hydrazinylidene)but-3-enoic acid] | 30.53% | 32.32% | – | – | – | – | – | –
11 | 54.84% | 21.06 ± 0.02 µM | – | 54.80% | 59.37% | O=C(O)C(/C=C/c1c(Cl)cccc1Cl)=N\Nc1nc(-c2ccccc2)cs1 [Compound 12, (2Z,3E)-4-(2,6-dichlorophenyl)-2-(2-(4-phenylthiazol-2-yl)hydrazinylidene)but-3-enoic acid] | 60.53% | 48.17% | – | – | – | – | – | –
12 | 62.01% | 18.06 ± 0.03 µM | – | 55.74% | 75.62% | Cc1ccc(-c2csc(N/N=C(/C=C/c3c(Cl)cccc3Cl)C(=O)O)n2)cc1 [Compound 13, (2Z,3E)-4-(2,6-dichlorophenyl)-2-(2-(4-(4-tolyl)thiazol-2-yl)hydrazinylidene)but-3-enoic acid] | 67.71% | 51.22% | – | – | – | – | – | –
13 | 51.61% | 31.02 ± 0.04 µM | – | 67.21% | 61.25% | COc1ccc(-c2csc(N/N=C(/C=C/c3c(Cl)cccc3Cl)C(=O)O)n2)cc1 [Compound 14, (2Z,3E)-4-(2,6-dichlorophenyl)-2-(2-(4-(4-methoxyphenyl)thiazol-2-yl)hydrazinylidene)but-3-enoic acid] | 58.95% | 40.85% | – | – | – | – | – | –
14 | 70.97% | 62.31 ± 0.02 µM | – | 55.27% | 57.81% | O=C(O)C(/C=C/c1c(Cl)cccc1Cl)=N\Nc1nc(-c2ccc(F)cc2)cs1 [Compound 15, (2Z,3E)-4-(2,6-dichlorophenyl)-2-(2-(4-(4-fluorophenyl)thiazol-2-yl)hydrazinylidene)but-3-enoic acid] | 72.10% | 39.02% | – | – | – | – | – | –
15 | 64.16% | 53.18 ± 0.01 µM | – | 51.29% | 63.12% | O=C(O)C(/C=C/c1c(Cl)cccc1Cl)=N\Nc1nc(-c2ccc(Cl)cc2)cs1 [Compound 16, (2Z,3E)-4-(2,6-dichlorophenyl)-2-(2-(4-(4-chlorophenyl)thiazol-2-yl)hydrazinylidene)but-3-enoic acid] | 50.53% | 52.44% | – | – | – | – | – | –
16 | 61.65% | 60.28 ± 0.02 µM | – | 42.62% | 63.44% | O=C(O)C(/C=C/c1c(Cl)cccc1Cl)=N\Nc1nc(-c2ccc(Br)cc2)cs1 [Compound 17, (2Z,3E)-4-(2,6-dichlorophenyl)-2-(2-(4-(4-bromophenyl)thiazol-2-yl)hydrazinylidene)but-3-enoic acid] | 54.21% | 35.36% | – | – | – | – | – | –
17 | 55.56% | 63.18 ± 0.01 µM | – | 37.00% | 62.50% | O=C(O)C(/C=C/c1c(Cl)cccc1Cl)=N\Nc1nc(-c2ccc([N+](=O)[O-])cc2)cs1 [Compound 18, (2Z,3E)-4-(2,6-dichlorophenyl)-2-(2-(4-(4-nitrophenyl)thiazol-2-yl)hydrazinylidene)but-3-enoic acid] | 76.84% | 45.12% | – | – | – | – | – | –
